In patent publication US12077503B2, “Substituted cyclic amides and their use as herbicides” (FMC CORPORATION, priority 2015, dated 2024):

Legend:
Assay type in all cases: in vivo
corn (Zea mays) = test: Test A postemergence; settings: Zea mays, post-emergence, 240 h, postemergence
Summary of the method: (§1)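 In a loam soil and sand blend, planted seeds got a preemergence directed soil spray, and young plants at the one- to two-leaf stage, 2–10 cm high, got a postemergence application; ~10 d greenhouse hold; injury rated visually, 0 = none, 100 = complete control.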

[1] = system: pigweed (Amaranthus retroflexus); test: Test A postemergence; settings: Amaranthus retroflexus, post-emergence, 240 h, postemergence
Summary of the method: as §1

[2] = system: barnyardgrass (Echinochloa crus-galli); test: Test A postemergence; settings: Echinochloa crus-galli, post-emergence, 240 h, postemergence
Summary of the method: as §1

[3] = system: Galium (catchweed bedstraw, Galium aparine); test: Test A postemergence; settings: Galium, post-emergence, 240 h, postemergence
Summary of the method: as §1

[4] = system: blackgrass (Alopecurus myosuroides); test: Test A postemergence; settings: Alopecurus myosuroides, post-emergence, 240 h, postemergence
Summary of the method: as §1

[5] = system: giant foxtail (Setaria faberii); test: Test A postemergence; settings: Setaria faberi, post-emergence, 240 h, postemergence
Summary of the method: as §1

[6] = system: wheat (Triticum aestivum); test: Test A postemergence; settings: Triticum aestivum, post-emergence, 240 h, postemergence
Summary of the method: as §1

[7] = system: ryegrass, Italian (Italian ryegrass, Lolium multiflorum); test: Test A postemergence; settings: Lolium multiflorum, post-emergence, 240 h, postemergence
Summary of the method: as §1

[8] = system: ragweed (common ragweed, Ambrosia elatior); test: Test A postemergence; settings: Ambrosia artemisiifolia, post-emergence, 240 h, postemergence
Summary of the method: as §1

[9] = system: pigweed (Amaranthus retroflexus); test: Test A preemergence; settings: Amaranthus retroflexus, pre-emergence, 240 h, preemergence, 0 to 100 scale where 0 is no effect and 100 is complete control, read-out: Pigweed plant response rating
[10] = system: barnyardgrass (Echinochloa crus-galli); test: Test A preemergence; settings: Echinochloa crus-galli, pre-emergence, 240 h, preemergence, 0 to 100 scale where 0 is no effect and 100 is complete control, read-out: Barnyardgrass plant response rating
Summary of the method: as §1

Kochia (Kochia scoparia) = test: Test A preemergence; settings: Bassia scoparia, pre-emergence, 240 h, preemergence, 0 to 100 scale where 0 is no effect and 100 is complete control, read-out: Kochia plant response rating
Summary of the method: as §1

[11] = system: giant foxtail (Setaria faberii); test: Test A preemergence; settings: Setaria faberi, pre-emergence, 240 h, preemergence, 0 to 100 scale where 0 is no effect and 100 is complete control, read-out: Foxtail, Giant plant response rating
Summary of the method: as §1

[12] = system: ryegrass, Italian (Italian ryegrass, Lolium multiflorum); test: Test A preemergence; settings: Lolium multiflorum, pre-emergence, 240 h, preemergence, 0 to 100 scale where 0 is no effect and 100 is complete control, read-out: Ryegrass, Italian plant response rating
Summary of the method: as §1

[13] = system: ragweed (common ragweed, Ambrosia elatior); test: Test A preemergence; settings: Ambrosia artemisiifolia, pre-emergence, 240 h, preemergence, 0 to 100 scale where 0 is no effect and 100 is complete control, read-out: Ragweed plant response rating
Summary of the method: as §1

O=C1NCC[C@H](c2cccc(Cl)c2)[C@H]1C(=O)Nc1ccccc1F [Compound 1159]
70%: pest or weed control at 500 g/ha ([5]; 500 g ai/ha, 0 to 100 scale, 0 is no effect, 100 is complete control, read-out: Foxtail, Giant plant response rating) | pest or weed control at 125 g/ha ([11]; 125 g ai/ha, approx. 10 d)
30%: pest or weed control at 500 g/ha (Kochia (Kochia scoparia); 500 g ai/ha)
0%: plant injury at 125 g/ha (corn (Zea mays); 125 g ai/ha, visual injury vs untreated controls after approx. 10 d, 0 = no effect, 100 = complete control, read-out: Corn plant response rating (0 to 100 scale)) | pest or weed control at 125 g/ha ([1]; 125 g ai/ha, visual injury vs untreated controls after approx. 10 d, 0 = no effect, 100 = complete control, read-out: Pigweed plant response rating (0 to 100 scale)) | pest or weed control at 125 g/ha ([4]; 125 g ai/ha, visual injury vs untreated controls after approx. 10 d, 0 = no effect, 100 = complete control, read-out: Blackgrass plant response rating (0 to 100 scale)) | pest or weed control at 500 g/ha ([4]; 500 g ai/ha, 0 to 100 scale, 0 is no effect, 100 is complete control, read-out: Blackgrass plant response rating) | plant injury at 125 g/ha ([6]; 125 g ai/ha, visual injury vs untreated controls after approx. 10 d, 0 = no effect, 100 = complete control, read-out: Wheat plant response rating (0 to 100 scale)) | plant injury at 500 g/ha ([6]; 500 g ai/ha, 0 to 100 scale, 0 is no effect, 100 is complete control, read-out: Wheat plant response rating) | pest or weed control at 125 g/ha ([7]; 125 g ai/ha, visual injury vs untreated controls after approx. 10 d, 0 = no effect, 100 = complete control, read-out: Ryegrass, Italian plant response rating (0 to 100 scale)) | pest or weed control at 500 g/ha ([7]; 500 g ai/ha, 0 to 100 scale, 0 is no effect, 100 is complete control, read-out: Ryegrass, Italian plant response rating) | pest or weed control at 125 g/ha ([8]; 125 g ai/ha, visual injury vs untreated controls after approx. 10 d, 0 = no effect, 100 = complete control, read-out: Ragweed plant response rating (0 to 100 scale)) | pest or weed control at 500 g/ha ([8]; 500 g ai/ha, 0 to 100 scale, 0 is no effect, 100 is complete control, read-out: Ragweed plant response rating) | pest or weed control at 125 g/ha ([9]; 125 g ai/ha, approx. 10 d) | pest or weed control at 500 g/ha ([9]; 500 g ai/ha) | pest or weed control at 125 g/ha (Kochia (Kochia scoparia); 125 g ai/ha, approx. 10 d) | pest or weed control at 125 g/ha ([12]; 125 g ai/ha, approx. 10 d) | pest or weed control at 500 g/ha ([12]; 500 g ai/ha) | pest or weed control at 125 g/ha ([13]; 125 g ai/ha, approx. 10 d) | pest or weed control at 500 g/ha ([13]; 500 g ai/ha)
60%: pest or weed control at 125 g/ha ([10]; 125 g ai/ha, approx. 10 d)
90%: pest or weed control at 125 g/ha ([2]; 125 g ai/ha, visual injury vs untreated controls after approx. 10 d, 0 = no effect, 100 = complete control, read-out: Barnyardgrass plant response rating (0 to 100 scale)) | pest or weed control at 500 g/ha ([2]; 500 g ai/ha, 0 to 100 scale, 0 is no effect, 100 is complete control, read-out: Barnyardgrass plant response rating) | pest or weed control at 500 g/ha ([10]; 500 g ai/ha) | pest or weed control at 500 g/ha ([11]; 500 g ai/ha)
20%: plant injury at 500 g/ha (corn (Zea mays); 500 g ai/ha, 0 to 100 scale, 0 is no effect, 100 is complete control, read-out: Corn plant response rating) | pest or weed control at 500 g/ha ([1]; 500 g ai/ha, 0 to 100 scale, 0 is no effect, 100 is complete control, read-out: Pigweed plant response rating) | pest or weed control at 125 g/ha ([3]; 125 g ai/ha, visual injury vs untreated controls after approx. 10 d, 0 = no effect, 100 = complete control, read-out: Galium plant response rating (0 to 100 scale)) | pest or weed control at 500 g/ha ([3]; 500 g ai/ha, 0 to 100 scale, 0 is no effect, 100 is complete control, read-out: Galium plant response rating)
40%: pest or weed control at 125 g/ha ([5]; 125 g ai/ha, visual injury vs untreated controls after approx. 10 d, 0 = no effect, 100 = complete control, read-out: Foxtail, Giant plant response rating (0 to 100 scale))
